Earlier results on three compounds are cited in patent US20140005605A1, “USE OF QUORUM SENSING INHIBITORS AND BIOFILM DISPERSING AGENTS FOR CONTROLLING BIOFILM-ASSOCIATED IMPLANTABLE MEDICAL DEVICE RELATED INFECTIONS” (priority 2012, published 2014).

Data set [1] relates to biofilms formed by Staphylococcus aureus.
The subject of data set [2] is biofilms formed by Pseudomonas aeruginosa.
In data set [3] the test system is Pseudomonas aeruginosa. The conditions noted are these: mice treated with the QSI; promoted clearance by the murine immune system.

Turning to `O=[N+]([O-])c1cc[n+]([O-])cc1` [4-nitro-pyridine-N-oxide], the effectiveness against biofilms entry in data set [1] and in data set [2] was “effective” each time.
For `CCCCCCC/C=C\C(=O)O` [cis-2-decanoic acid], the effectiveness against biofilms entry in data set [1] and in data set [2] was “effective” in each case.
Regarding `O=C1C=C(Br)/C(=C/Br)O1` [furanone C-30], the biofilm formation result in data set [3] is given as “inhibited biofilm formation”.
